Measurements published in patent US20050256134A1, “Use of creatine analogues and creatine kinase modulators for the prevention and treatment of glucose metabolic disorders” (AVICENA GROUP, INC., priority 1995, published 2005).

Legend:
[1] = tested on: Zuker lean littermates (ZDF +/?); assay: Creatine compounds as 1% of the diet, glucose and insulin levels in lean littermates; format: in vivo, rat
From the text: This preliminary study was initiated to gain insight into the potential regulation of glucose levels by creatine compounds in ZDF rats, a widely studied rodent model of NIDDM (Peterson, Lessons from Animal Diabetes, 1994, Pages 225-230). Male Zuker diabetic fatty (ZDF-fa/fa) rats and their lean Zuker littermates (ZDF +/?) were from Genetic Models, Inc., Indianapolis, Ind. […] Hyperglycemia is initially manifested at about 7 weeks of age and all obese rats are fully diabetic by 12 weeks of age (fed blood glucose of greater than 500 mg %). This level of hyperglycemia increases slightly for several weeks thereafter. Between 7 and 10 weeks, blood insulin levels are high but these subsequently drop as the pancreatic beta cells cease to respond to the glucose stimulus. The lean (ZDF/Gmi) rats are the control counterparts of the diabetic animals. These rats have the same genetics as the obese animals except for the obesity trait. No phenotypic differences have been observed between these rats and other typical lean control rats.
Male Zuker diabetic fatty (ZDF-fa/fa) rats and Zuker lean littermates (ZDF +/?) were 12 weeks old when dosing with creatine compounds was initiated. The ZDF-fa/fa rats were completely diabetic. The littermates were the same age. […] Animals were bled regularly throughout the experiment and glucose and insulin levels were determined using standard procedures (Linco RI-13K). […]

[2] = tested on: NZW rabbits, normal or infected with HCMV in their eyes; assay: Effect of cyclocreatine continuous intravenous infusion on glucose levels in rabbits; format: in vivo, rabbit; conditions: for average glucose levels: 10 and 5 mg/ml
Description: The creatine compound cyclocreatine, was given as a continuous intravenous infusion (IV) to normal rabbits or rabbits infected with the human cytomegalovirus (HCMV) in their eyes (Rabbit Chorioretinal model). Glucose levels were recorded over a period of seven days. This compound was tested in infected as well as in normal animals due to the fact that these compounds were also being evaluated as anti viral agents, a biological activity that were reported in the U.S. Pat. No. 5,321,030. As will become clear in the data presented here the eye infection had no effect on the levels of glucose recorded. The schedule and dose selected in these experiments was based on prior experience working with this class of compounds as antiviral agents.
A total of 11 NZW rabbits weighing 1.75-2.0 Kg were used in the experiments. All animals were infused with various doses of cyclocreatine over a period of 1-7 days in a continuous infusion mode. Continuous infusions were achieved by surgical implantation of an indwelling catheter implant into the jugular vein by standard surgical procedures. The catheter was threaded through a steel sleeve and swivel apparatus attached to the back of the animal's neck which was anchored to a specially fitted vest. A Harvard Apparatus 2200 unifusion pump maintained drug delivery at a constant rate through out the experiment. This arrangement allowed the animal unimpaired movement within its cage. Animals received a bolus injection of antibiotics immediately after surgery and daily if needed. After animals recovered from the anesthesia, some animals were inoculated by intravitreal injection of AD169 HCMV (10^5 pfu). The remaining animals were left uninfected. Both infected and uninfected animals received a continuous infusion of cyclocreatine or saline for up to seven days. Concentrations of cyclocreatine were 5, 10, or 15 mg cyclocreatine/ml saline and infusion rates and volumes were adjusted to achieve the desired dose of 375-1125 mg/Kg/day. These concentrations were based on amounts required to achieve other biological activities such as antiviral or anticancer. […] The rest of the animals received a similar volume of sterile saline. […]

creatine kinase = conditions: forward reaction, in vitro and in vivo; cited from earlier work
[3] = uninfected, 15 mg/ml (1125 mg/Kg/day), day five

Q: For `NC1=NCCN1CC(=O)O` [cyclocreatine], which “drop in insulin levels” value ([1]; lean animals) is on record?
A: over 50%

Q: And the “drop in level of glucose” value ([1]; lean rats, vs Day 0, n=3)?
A: about 15%

Q: What about the “Glucose Levels” value ([2]; 5 mg/ml, HCMV infected, animal 1, day 0) of the same molecule?
A: 177 mg/dL

Q: What about the “Glucose Levels” value ([2]; 5 mg/ml, HCMV infected, animal 1, day 1) of the same molecule?
A: 104 mg/dL

Q: What about the “Glucose Levels” value ([2]; 5 mg/ml, HCMV infected, animal 1, day 3) of the same molecule?
A: 70 mg/dL

Q: What about the “Glucose Levels” value ([2]; 5 mg/ml, HCMV infected, animal 1, day 5) of the same molecule?
A: 29 mg/dL

Q: What about the “Glucose Levels” value ([2]; 5 mg/ml, HCMV infected, animal 2, day 0) of the same molecule?
A: 177 mg/dL

Q: What about the “Glucose Levels” value ([2]; 5 mg/ml, HCMV infected, animal 2, day 1) of the same molecule?
A: 94 mg/dL

Q: And the “Glucose Levels” value ([2]; 5 mg/ml, HCMV infected, animal 2, day 3)?
A: 49 mg/dL

Q: What about the “Glucose Levels” value ([2]; 5 mg/ml, HCMV infected, animal 2, day 5) of the same molecule?
A: 41 mg/dL

Q: What about the “Glucose Levels” value ([2]; 5 mg/ml, HCMV infected, animal 3, day 0) of the same molecule?
A: 177 mg/dL

Q: What about the “Glucose Levels” value ([2]; 5 mg/ml, HCMV infected, animal 3, day 1) of the same molecule?
A: 93 mg/dL

Q: What about the “Glucose Levels” value ([2]; 5 mg/ml, HCMV infected, animal 3, day 3) of the same molecule?
A: 47 mg/dL

Q: And the “Glucose Levels” value ([2]; 5 mg/ml, HCMV infected, animal 3, day 5)?
A: 33 mg/dL

Q: What about the “Glucose Levels” value ([2]; 10 mg/ml, HCMV infected, animal 1, day 0) of the same molecule?
A: 169 mg/dL

Q: What about the “Glucose Levels” value ([2]; 10 mg/ml, HCMV infected, animal 1, day 1) of the same molecule?
A: 118 mg/dL

Q: And the “Glucose Levels” value ([2]; 10 mg/ml, HCMV infected, animal 1, day 3)?
A: 103 mg/dL

Q: And the “Glucose Levels” value ([2]; 10 mg/ml, HCMV infected, animal 1, day 4)?
A: 59 mg/dL

Q: What about the “Glucose Levels” value ([2]; 10 mg/ml, HCMV infected, animal 1, day 5) of the same molecule?
A: 45 mg/dL

Q: What about the “Glucose Levels” value ([2]; 10 mg/ml, HCMV infected, animal 2, day 0) of the same molecule?
A: 194 mg/dL

Q: What about the “Glucose Levels” value ([2]; 10 mg/ml, HCMV infected, animal 2, day 1) of the same molecule?
A: 89 mg/dL

Q: What about the “Glucose Levels” value ([2]; 10 mg/ml, HCMV infected, animal 2, day 3) of the same molecule?
A: 98 mg/dL

Q: What about the “Glucose Levels” value ([2]; 10 mg/ml, HCMV infected, animal 2, day 4) of the same molecule?
A: 69 mg/dL

Q: And the “Glucose Levels” value ([2]; 10 mg/ml, HCMV infected, animal 2, day 5)?
A: 62 mg/dL

Q: What about the “Glucose Levels” value ([2]; 10 mg/ml, HCMV infected, animal 3, day 0) of the same molecule?
A: 201 mg/dL

Q: What about the “Glucose Levels” value ([2]; 10 mg/ml, HCMV infected, animal 3, day 1) of the same molecule?
A: 76 mg/dL

Q: What about the “Glucose Levels” value ([2]; 10 mg/ml, HCMV infected, animal 3, day 3) of the same molecule?
A: 74 mg/dL

Q: And the “Glucose Levels” value ([2]; 10 mg/ml, HCMV infected, animal 3, day 4)?
A: 87 mg/dL

Q: What about the “Glucose Levels” value ([2]; 10 mg/ml, HCMV infected, animal 3, day 5) of the same molecule?
A: 55 mg/dL

Q: What about the “Glucose Levels” value ([2]; 10 mg/ml, HCMV infected, animal 4, day 0) of the same molecule?
A: 184 mg/dL

Q: And the “Glucose Levels” value ([2]; 10 mg/ml, HCMV infected, animal 4, day 1)?
A: 81 mg/dL

Q: And the “Glucose Levels” value ([2]; 10 mg/ml, HCMV infected, animal 4, day 3)?
A: 85 mg/dL

Q: And the “Glucose Levels” value ([2]; 10 mg/ml, HCMV infected, animal 4, day 4)?
A: 65 mg/dL

Q: What about the “Glucose Levels” value ([2]; 10 mg/ml, HCMV infected, animal 4, day 5) of the same molecule?
A: 53 mg/dL

Q: And the “Glucose Levels” value ([2]; 15 mg/ml, not infected, animal 1, day 0)?
A: 177 mg/dL

Q: What about the “Glucose Levels” value ([2]; 15 mg/ml, not infected, animal 1, day 3) of the same molecule?
A: 48 mg/dL

Q: What about the “Glucose Levels” value ([2]; 15 mg/ml, not infected, animal 2, day 0) of the same molecule?
A: 177 mg/dL

Q: What about the “Glucose Levels” value ([2]; 15 mg/ml, not infected, animal 2, day 3) of the same molecule?
A: 59 mg/dL

Q: And the “Glucose Levels” value ([2]; 15 mg/ml, not infected, animal 2, day 5)?
A: 7 mg/dL

Q: And the “Glucose Levels” value ([2]; 15 mg/ml, not infected, animal 3, day 0)?
A: 177 mg/dL

Q: And the “Glucose Levels” value ([2]; 15 mg/ml, not infected, animal 3, day 5)?
A: 22 mg/dL

Q: And the “Glucose Levels” value ([2]; 15 mg/ml, not infected, animal 3, day 6)?
A: 22 mg/dL

Q: And the “Glucose Levels” value ([2]; 15 mg/ml, not infected, animal 3, day 7, (10 ml/rabbit 20% Dextrose))?
A: 73 mg/dL

Q: What about the “Glucose Levels” value ([2]; ave 5 mg/ml, HCMV infected, day 0) of the same molecule?
A: 177 mg/dL

Q: What about the “Glucose Levels” value ([2]; ave 5 mg/ml, HCMV infected, day 1) of the same molecule?
A: 97 mg/dL

Q: What about the “Glucose Levels” value ([2]; ave 5 mg/ml, HCMV infected, day 3) of the same molecule?
A: 55 mg/dL

Q: And the “Glucose Levels” value ([2]; ave 5 mg/ml, HCMV infected, day 5)?
A: 34 mg/dL

Q: And the “Glucose Levels” value ([2]; ave 10 mg/ml, HCMV infected, day 0)?
A: 187 mg/dL

Q: And the “Glucose Levels” value ([2]; ave 10 mg/ml, HCMV infected, day 1)?
A: 91 mg/dL

Q: What about the “Glucose Levels” value ([2]; ave 10 mg/ml, HCMV infected, day 3) of the same molecule?
A: 90 mg/dL

Q: And the “Glucose Levels” value ([2]; ave 10 mg/ml, HCMV infected, day 4)?
A: 70 mg/dL

Q: What about the “Glucose Levels” value ([2]; ave 10 mg/ml, HCMV infected, day 5) of the same molecule?
A: 54 mg/dL

Q: And the “Glucose Levels” value ([2]; ave 15 mg/ml, not infected, day 0)?
A: 177 mg/dL

Q: And the “Glucose Levels” value ([2]; ave 15 mg/ml, not infected, day 3)?
A: 54 mg/dL

Q: And the “Glucose Levels” value ([2]; ave 15 mg/ml, not infected, day 5)?
A: 15 mg/dL

Q: What about the “Glucose Levels” value ([2]; ave 15 mg/ml, not infected, day 6) of the same molecule?
A: 22 mg/dL

Q: And the “Glucose Levels” value ([2]; ave 15 mg/ml, not infected, day 7, (10 ml/rabbit 20% Dextrose))?
A: 73 mg/dL

Q: And the blood glucose levels ([2]; infected, 10 mg/ml (750 mg/Kg/day) and 5 mg/ml (375 mg/Kg/day))?
A: significant drop in blood glucose levels

Q: What about the average glucose levels ([2]; infected, day five) of the same molecule?
A: 30 to 50 mg/dL

Q: What about the average glucose levels ([2]; infected, day one) of the same molecule?
A: ~90 mg/dL

Q: And the Glucose Levels ([2]; uninfected, 15 mg/ml (1125 mg/Kg/day))?
A: significant drop in their glucose levels

Q: And the Glucose Levels [2, 3]?
A: 7 to 22 mg/dL

Q: And the “condition of the animals” value [2, 3]?
A: very lethargic

Q: What about the Glucose Levels ([2]; uninfected, 15 mg/ml (1125 mg/Kg/day), day three) of the same molecule?
A: 48 to 59 mg/dL

Q: What about the “level of glucose after 10 mls of a 20% solution of dextrose” value ([2]; uninfected, 15 mg/ml, day 7) of the same molecule?
A: 70 mg/dL

Q: And the “phosphorylation by creatine kinase” value (creatine kinase)?
A: phosphorylated efficiently
